Results taken from article PMC7083565, “In vitro metabolism, reaction phenotyping, enzyme kinetics, CYP inhibition and induction potential of ataluren” (Pharmacology Research & Perspectives, 2020).
Where two headings read alike, the source gives them in different places.

Target: T1, UGT1A9 (Homo sapiens, UniProt O60656)
T1 construct: purchased BD Biosciences; host or cells: baculovirus-infected insect cells
T1 sequence (O60656 26-530): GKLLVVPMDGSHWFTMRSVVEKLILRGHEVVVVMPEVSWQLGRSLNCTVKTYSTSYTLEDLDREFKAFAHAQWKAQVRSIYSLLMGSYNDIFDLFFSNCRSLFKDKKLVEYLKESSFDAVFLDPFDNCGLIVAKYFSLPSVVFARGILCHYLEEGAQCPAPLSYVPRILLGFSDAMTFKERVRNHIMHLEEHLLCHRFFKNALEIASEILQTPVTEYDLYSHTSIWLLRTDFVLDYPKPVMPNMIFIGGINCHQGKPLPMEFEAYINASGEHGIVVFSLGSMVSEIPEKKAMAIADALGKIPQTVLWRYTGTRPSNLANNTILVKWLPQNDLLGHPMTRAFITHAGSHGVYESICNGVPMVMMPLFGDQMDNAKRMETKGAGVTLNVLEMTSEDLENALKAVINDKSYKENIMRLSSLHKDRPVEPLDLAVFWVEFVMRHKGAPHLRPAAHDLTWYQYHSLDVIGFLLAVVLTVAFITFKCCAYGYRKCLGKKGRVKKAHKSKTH
Test: Ataluren glucuronidation kinetics, recombinant human UGT1A9
Type: in vitro ADME
Settings: for K m / K m, u / V max: mean ± SE; for K m / K m, u / V max / fraction unbound at 15 min: n = 3; for microsomal CLint / fraction unbound at 15 min: human; for microsomal CLint: read-out: CLint,u,UGT; for fraction unbound at 15 min: recombinant human UGT1A9 incubation mixture, mean ± SD, read-out: fu,inc
Description: Ataluren at 0.5, 2.5, 12.5, 25, 50, 100, 200, and 400 µmol/L, was incubated (n = 3) at 37°C with recombinant human UGT1A9 and with pooled microsomes from human liver, kidney, and intestine (0.025 mg protein/mL, preactivated with alamethicin at 20 µg/mL) in Tris‐HCl buffer (0.1 mol/L, pH 7.5), in the presence of 1 mmol/L EDTA, 5 mmol/L MgCl2, with or without 0.5%, 1%, or 2% BSA. The incubation (100 µL final volume with 0.5% DMSO) was started by adding an equal volume of UDPGA (5 mmol/L) in Tris‐HCl buffer (0.1 mol/L, pH 7.5). After 30 minutes incubation, the incubation mixtures were combined with 0.3 mL of an internal standard solution in acetonitrile with 1% formic acid, followed by membrane plate filtration. The filtrates were used for LC‐MS/MS analysis to quantify the formation of ataluren‐O‐1β‐acyl glucuronide. Detailed LC‐MS/MS conditions are summarized in LC‐MS/MS Analysis section. Ataluren acyl glucuronide formation rate after 30 minutes incubation was calculated using the amount of metabolite formed (pmol) divided by the protein amount in the incubation sample (0.0025 mg) and the incubation time (30 minutes). Ataluren glucuronidation kinetic parameters were determined with and without adjusting BSA binding by nonlinear regression (GraphPad Prism, 5version 5.04, GraphPad Software, Inc.) using Michaelis‐Menten equation which was the best fit compared with other models. The intrinsic clearance was calculated as CLint = Vmax/Km. In order to compare unbound intrinsic clearance by glucuronidation (CLint,u,UGT) in different tissues, CLint,u,UGT was expressed per gram of tissue by correcting the values for the microsomal protein yield, resulting in scaled CLint,u,UGT. Microsomal protein yields of 40.0, 12.8, and 20.6 mg protein/g tissue were used for hepatic, renal, and intestinal data, respectively. ^26
The high‐throughput membrane ultrafiltration method ^27 was used to determine the fraction unbound in the incubation (n = 3). Incubation mixtures and procedures were essentially the same as the above except that UDPGA (5 mmol/L) was replaced with Tris‐HCl buffer (0.1 mol/L, pH 7.5). After 15 minutes incubation, aliquot was transferred to a Millipore Multiscreen Ultracel‐10 filter plate (10 kDa molecular mass cut off; EMD Millipore). The plate was centrifuged at 37°C and 3710 g. After 30 minutes centrifugation, aliquots of ultrafiltrates and incubation mixtures prior to ultrafiltration were quenched with an internal standard solution in acetonitrile, followed by membrane plate filtration. The filtrates were used for LC‐MS/MS analysis to quantify the concentration of ataluren. The same LC‐MS/MS conditions described above are summarized in LC‐MS/MS Analysis section. The free fraction = Cu/Cm, where Cu is the concentration of ataluren in the ultrafiltrate and Cm is the concentration of ataluren in the incubation system before centrifugation. Unbound Km (Km, u) was recalculated by applying Michaelis‐Menten equation using free ataluren concentrations after correcting BSA binding at each ataluren and BSA concentration level.
Quantification of ataluren‐O‐1β‐acyl glucuronide formation was conducted on an Accela pump and a PAL autosampler equipped with a TSQ Quantum Ultra mass spectrometer (Thermo Fisher Scientific). A Waters Acquity BEH column (C18, 1.7 µm, 50 × 2.1 mm; Waters Cooperation) was used and maintained at 50°C. The mobile phases were 0.1% formic acid in water (A) and acetonitrile (B). The flow rate was 0.6 mL/min and gradient program was as follows: linear gradient from 0% B to 95% B in 0.5 minutes and hold isocratic at 95% B for 1 minute; linear gradient from 95% B to 0% B in 0.1 minutes and hold isocratic at 0% B for 0.4 minutes. TSQ Quantum Ultra mass spectrometer was equipped with a heated electrospray ionization source operated in negative‐ion mode with a vaporizer temperature of 350°C, capillary temperature of 380°C, and spray voltage of 3 kV. […]

O=C(O)c1cccc(-c2noc(-c3ccccc3F)n2)c1 [ataluren, Ataluren]
K m (UGT1A9, 0% BSA): 4.76 ± 0.934 µM
K m, u (UGT1A9, 0% BSA): 4.76 ± 0.934 µM
V max (UGT1A9, 0% BSA): 1058 ± 31.8 pmol/min/mg
K m (UGT1A9, 0.5% BSA): 26.4 ± 2.80 µM
K m, u (UGT1A9, 0.5% BSA): 2.71 ± 0.309 µM
V max (UGT1A9, 0.5% BSA): 752 ± 20.3 pmol/min/mg
K m (UGT1A9, 1% BSA): 45.6 ± 3.83 µM
K m, u (UGT1A9, 1% BSA): 2.52 ± 0.243 µM
V max (UGT1A9, 1% BSA): 842 ± 23.0 pmol/min/mg
K m (UGT1A9, 2% BSA): 83.4 ± 15.3 µM
K m, u (UGT1A9, 2% BSA): 2.46 ± 0.498 µM
V max (UGT1A9, 2% BSA): 847 ± 56.2 pmol/min/mg
microsomal CLint (recombinant human UGT1A9, pH 7.5, UGT1A9, 0% BSA): 222 µL/min/mg
microsomal CLint (recombinant human UGT1A9, pH 7.5, UGT1A9, 0.5% BSA): 277 µL/min/mg
microsomal CLint (recombinant human UGT1A9, pH 7.5, UGT1A9, 1% BSA): 334 µL/min/mg
microsomal CLint (recombinant human UGT1A9, pH 7.5, UGT1A9, 2% BSA): 344 µL/min/mg
fraction unbound at 15 min (pH 7.5, UGT1A9, 0% BSA): 1 ± 0.5
fraction unbound at 15 min (pH 7.5, UGT1A9, 0.5% BSA): 0.116 ± 0.019
fraction unbound at 15 min (pH 7.5, UGT1A9, 1% BSA): 0.064 ± 0.007
fraction unbound at 15 min (pH 7.5, UGT1A9, 2% BSA): 0.035 ± 0.003
maximal effect of BSA on CLint,u (increase) (recombinant UGT1A9, with vs without BSA): approximately 1.6 fold
